We go through 17 molecules from patent US10059669B2, “2-amino-3,5-difluoro-3,6-dimethyl-6-phenyl-3,4,5,6-tetrahydropyridines as BACE1 inhibitors for treating alzheimer's disease” (H. Lundbeck A/S, priority 2014, dated 2018).

SMILES strings stand for the structures.

The target in data set [1] is T1, BACE1 (Homo sapiens (Human), UniProt P56817). The experiment in a line: BACE1 binding assay (SPA-based radioligand binding). Particulars: pH 4.5, 10 nM radioligand, Ki calculated from IC50. On the procedure: The binding assay was performed as SPA-based assay using a biotinylated form of human BACE1 recombinantly expressed and subsequently purified from Freestyle HEK293 cells. The binding assay was run in a 50 mM sodium acetate buffer, pH 4.5 containing 50 mM NaCl and 0.03% Tween-20 in white clear bottom 384 plates (Corning #3653). 10 nM (final concentration) radioligand ([^3H]—N-((1S,2R)-1-benzyl-3-cyclopropylamino-2-hydroxy-propyl)-5-(methanesulfonyl-methyl-amino)-N—((R)-1-phenyl-ethyl)-isophthalamide) (TRQ11569 purchased from GE Healthcare) was mixed with test compound at a given concentration, 6 nM (final concentration) human BACE1 and 25 μg Streptavidin coated PVT core SPA beads (RPNQ0007, GE Healthcare Life Sciences) in a total volume of 40 μl. Several concentrations of each test compound were tested in the assay for IC50 determination. The plates were incubated for one hour at room temperature and counted in a Wallac Trilux counter. Total and non-specific binding were determined using buffer and 1 μM (final concentration) of the high affinity BACE1 reference inhibitor (S)-6-[3-chloro-5-(5-prop-1-ynyl-pyridin-3-yl)-thiophen-2-yl]-2-imino-3,6-dimethyl-tetrahydro-pyrimidin-4-one, respectively. For each test compound, a IC50 value (the concentration mediating 50% inhibition of the specific binding of the radioligand) was determined from concentration-response curve and used to calculate the Ki from the equation Ki=IC50/(1+L/Kd), where L and Kd are the final concentration of the radioligand used in the assay and the dissociation constant of the radioligand, respectively. The Kd of the radioligand was determined from saturation binding experiments.
T1 sequence (P56817 46-501): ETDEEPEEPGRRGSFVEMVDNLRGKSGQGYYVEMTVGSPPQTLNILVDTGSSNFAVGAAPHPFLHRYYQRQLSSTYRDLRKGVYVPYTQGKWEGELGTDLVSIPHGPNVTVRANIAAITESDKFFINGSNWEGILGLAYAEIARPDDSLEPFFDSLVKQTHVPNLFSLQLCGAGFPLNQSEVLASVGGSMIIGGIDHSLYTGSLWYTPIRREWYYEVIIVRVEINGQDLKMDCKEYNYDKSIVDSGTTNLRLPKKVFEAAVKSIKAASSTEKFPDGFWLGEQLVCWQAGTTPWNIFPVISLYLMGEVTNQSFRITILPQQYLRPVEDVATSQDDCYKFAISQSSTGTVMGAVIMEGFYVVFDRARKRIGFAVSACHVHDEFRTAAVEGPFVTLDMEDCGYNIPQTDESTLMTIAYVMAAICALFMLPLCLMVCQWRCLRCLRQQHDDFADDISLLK

Data set [2] has as its target T1, BACE1. The experiment in a line: BACE1 efficacy assay (FRET-based, commercial BACE1 kit). It is filed as biochemical. The note with it: 10 μM test compound. The protocol:
The efficacy assay was performed as a FRET-based assay using a commercially available BACE1 kit (Life Technologies, P2985). 2 μl test compound at 10 μM (final concentration) and 15 μl BACE1 enzyme from the kit (final concentration 3 nM) were preincubated for 15 minutes at room temperature before addition of 15 μl of substrate from the kit (250 nM final concentration) and incubated for additional 90 minutes at room temperature. The assay plate was subsequently read in a Pherastar (Ex540/Em590). The enzyme activity observed in presence of test compound were normalized to the enzyme activity observed in presence of buffer and 10 μM (final concentration) of the high affinity BACE1 reference inhibitor (S)-6-[3-Chloro-5-(5-prop-1-ynyl-pyridin-3-yl)-thiophen-2-yl]-2-imino-3,6-dimethyl-tetra-hydropyrimidin-4-one, respectively. The efficacy of the test compounds was evaluated at 10 μM (final concentration) and defined as the percent inhibition of the enzyme activity using the equation % inhibition=100%−normalized enzyme activity in percent.

The test system of a further data set is P-gp (MDR1). Briefly: MDCK-MDR1 assay (permeability, efflux ratio). It is filed as in vitro ADME. Particulars: dog, Papp BA/Papp AB, 60-minute incubation, Pgp substrate when ≥2. On the procedure:
The permeability of the test compounds was assessed in MDCK-MDR1 cells that were cultured to confluency (4-6 days) in a 96 transwell plate. Test compounds were diluted with the transport buffer (HBSS+1% BSA) to a concentration of 0.5 μM and applied to the apical or basolateral side of the cell monolayer. Permeation of the test compounds from A to B direction or B to A direction was determined in triplicate over a 60-minute incubation time at 37° C. and 5% CO2 with a relative humidity of 95%. Test compounds were quantified by LC-MS/MS analysis based on the peaks area ratios of analyte/IS in both the receiver and donor wells of the transwell plate.
The apparent permeability coefficient Papp (cm/s) was calculated using the equation: Papp=(dCr/dt)×Vr/(A×C0)
Where dCr/dt is the cumulative concentration of compound in the receiver chamber as a function of time (M/s); Vr is the solution volume in the receiver chamber (0.05 mL on the apical side; 0.25 mL on the basolateral side); A is the surface area for the transport, i.e. 0.0804 cm^2 for the area of the monolayer; C0 is the initial concentration in the donor chamber (VIM).
Compounds are classified Pgp substrates when efflux ratio (Papp BA/Papp AB) is ≥2.

On to `Cc1nc(C(=O)Nc2ccc(F)c([C@@]3(C)N=C(N)[C@](C)(F)C[C@@H]3F)c2)co1` [Compound 6, N-(3-((2R,3S,5R)-6-amino-3,5-difluoro-2,5-dimethyl-2,3,4,5-tetrahydropyridin-2-yl)-4-fluorophenyl)-2-methyloxazole-4-carboxamide], for which the Ki on BACE1 [1] was 58 nM. In addition, on BACE1 [2], the inhibition at 10 µM was 101%. In addition, in the data set on P-gp (MDR1), the efflux ratio at 60 min, 0.5 μM came to 1.1.

Regarding `COc1cnc(C(=O)Nc2ccc(F)c([C@@]3(C)N=C(N)[C@@](C)(F)C[C@@H]3F)c2)cn1` [Compound 2, N-(3-((2R,3S,5S)-6-amino-3,5-difluoro-2,5-dimethyl-2,3,4,5-tetrahydropyridin-2-yl)-4-fluorophenyl)-5-methoxypyrazine-2-carboxamide], on BACE1 [1], the inhibition constant (Ki) is 26 nM. In addition, the inhibition at 10 µM on BACE1 [2] came to 99%. Also, the efflux ratio at 60 min, 0.5 μM in the data set with P-gp (MDR1) was found to be 0.79.

As for `C[C@@]1(F)C[C@H](F)[C@@](C)(c2cc(NC(=O)c3cnc(C(F)(F)F)cn3)ccc2F)N=C1N` [Compound 11, N-(3-((2R,3S,5R)-6-amino-3,5-difluoro-2,5-dimethyl-2,3,4,5-tetrahydropyridin-2-yl)-4-fluorophenyl)-5-(trifluoromethyl)pyrazine-2-carboxamide], at BACE1 [1], the inhibition constant Ki is 190 nM. Moreover, the inhibition at 10 µM at BACE1 [2] was 104%.

Consider `[2H]C([2H])([2H])Oc1ccc(C(=O)Nc2ccc(F)c([C@@]3(C)N=C(N)[C@@](C)(F)C[C@H]3F)c2)nc1` [Compound 23, N-(3-((2R,3R,5S)-6-amino-3,5-difluoro-2,5-dimethyl-2,3,4,5-tetrahydropyridin-2-yl)-4-fluorophenyl)-5-(methoxy-d3)picolinamide], for which, on BACE1 [1], the Ki was 81 nM. Moreover, the inhibition at 10 µM against BACE1 [2] was determined as 107%. Further, in the data set on P-gp (MDR1), the efflux ratio at 60 min, 0.5 μM turned out to be 0.95.

As for `Cn1ccnc1C(=O)Nc1ccc(F)c([C@@]2(C)N=C(N)[C@](C)(F)C[C@@H]2F)c1` [Compound 10, N-(3-((2R,3S,5R)-6-amino-3,5-difluoro-2,5-dimethyl-2,3,4,5-tetrahydropyridin-2-yl)-4-fluorophenyl)-1-methyl-1H-imidazole-2-carboxamide], the Ki at BACE1 [1] was 820 nM. Moreover, the inhibition at 10 µM against BACE1 [2] came out at 115%.

Take `[2H]C([2H])([2H])Oc1ccc(C(=O)Nc2ccc(F)c([C@@]3(C)N=C(N)[C@](C)(F)C[C@@H]3F)c2)nc1` [Compound 8, N-(3-((2R,3S,5R)-6-amino-3,5-difluoro-2,5-dimethyl-2,3,4,5-tetrahydropyridin-2-yl)-4-fluorophenyl)-5-(methoxy-d3)picolinamide]: the Ki at BACE1 [1] is 58 nM. For the same molecule, the inhibition at 10 µM against BACE1 [2] was determined as 100%. In the data set on P-gp (MDR1), the efflux ratio at 60 min, 0.5 μM came to 0.95.

With `C[C@@]1(F)C[C@H](F)[C@@](C)(c2cc(NC(=O)c3ccc(Cl)cn3)ccc2F)N=C1N` [Compound 9, N-(3-((2R,3S,5R)-6-amino-3,5-difluoro-2,5-dimethyl-2,3,4,5-tetrahydropyridin-2-yl)-4-fluorophenyl)-5-chloropicolinamide], the Ki at BACE1 [1] is 36 nM. Further, on BACE1 [2], the inhibition at 10 µM came out at 109%. Besides, the efflux ratio at 60 min, 0.5 μM in the data set on P-gp (MDR1) worked out at 1.31.

With `C[C@@]1(F)C[C@H](F)[C@@](C)(c2cc(NC(=O)c3ccc(Cl)cc3)ccc2F)N=C1N` [Compound 16, N-(3-((2R,3S,5R)-6-amino-3,5-difluoro-2,5-dimethyl-2,3,4,5-tetrahydropyridin-2-yl)-4-fluorophenyl)-4-chlorobenzamide], the inhibitory constant (Ki) at BACE1 [1] is 220 nM. Further, on BACE1 [2], the inhibition at 10 µM turned out to be 103%. The efflux ratio at 60 min, 0.5 μM with P-gp (MDR1) was 1.6.

`COc1cnc(C(=O)Nc2ccc(F)c([C@@]3(C)N=C(N)[C@](C)(F)C[C@@H]3F)c2)cn1` [Compound 5, N-(3-((2R,3S,5R)-6-amino-3,5-difluoro-2,5-dimethyl-2,3,4,5-tetrahydropyridin-2-yl)-4-fluorophenyl)-5-methoxypyrazine-2-carboxamide]: on BACE1 [1], the Ki is 51 nM. Further, the efflux ratio at 60 min, 0.5 μM with P-gp (MDR1) amounted to 1.53.

For `[2H]C([2H])([2H])Oc1ccc(C(=O)Nc2cc(F)c(F)c([C@@]3(C)N=C(N)[C@](C)(F)C[C@@H]3F)c2)nc1` [Compound 18, N-(3-((2R,3S,5R)-6-amino-3,5-difluoro-2,5-dimethyl-2,3,4,5-tetrahydropyridin-2-yl)-4,5-difluorophenyl)-5-(methoxy-d3)picolinamide], the Ki on BACE1 [1] is 6.8 nM. The inhibition at 10 µM on BACE1 [2] came to 101%. Also, the efflux ratio at 60 min, 0.5 μM with P-gp (MDR1) came to 1.24.

Take `C[C@]1(F)C[C@H](F)[C@@](C)(c2cc(NC(=O)c3ccc(F)cn3)ccc2F)N=C1N` [Compound 1, N-(3-((2R,3S,5S)-6-Amino-3,5-difluoro-2,5-dimethyl-2,3,4,5-tetrahydropyridin-2-yl)-4-fluorophenyl)-5-fluoropicolinamide]: the Ki at BACE1 [1] is 30 nM. The inhibition at 10 µM against BACE1 [2] came out at 103%. In the data set with P-gp (MDR1), the efflux ratio at 60 min, 0.5 μM is 1.09.

For the molecule `COc1ccc(C(=O)Nc2ccc(F)c([C@@]3(C)N=C(N)[C@](C)(F)C[C@@H]3F)c2)nc1` [Compound 7, N-(3-((2R,3S,5R)-6-amino-3,5-difluoro-2,5-dimethyl-2,3,4,5-tetrahydropyridin-2-yl)-4-fluorophenyl)-5-methoxypicolinamide], on BACE1 [1], the Ki was 39 nM. Further, the inhibition at 10 µM against BACE1 [2] was 102%. In addition, the efflux ratio at 60 min, 0.5 μM in the data set with P-gp (MDR1) came to 5.67.

Consider `C[C@@]1(F)C[C@H](F)[C@@](C)(c2cc(NC(=O)c3cnc(C(F)F)cn3)ccc2F)N=C1N` [Compound 15, N-(3-((2R,3S,5R)-6-amino-3,5-difluoro-2,5-dimethyl-2,3,4,5-tetrahydropyridin-2-yl)-4-fluorophenyl)-5-(difluoromethyl)pyrazine-2-carboxamide], for which the Ki at BACE1 [1] was 100 nM. Also, the inhibition at 10 µM against BACE1 [2] is 108%. Moreover, the efflux ratio at 60 min, 0.5 μM in the data set on P-gp (MDR1) was found to be 2.07.

As for `C[C@@]1(F)C[C@H](F)[C@@](C)(c2cc(NC(=O)c3coc(C(F)F)n3)ccc2F)N=C1N` [Compound 13, N-(3-((2R,3S,5R)-6-amino-3,5-difluoro-2,5-dimethyl-2,3,4,5-tetrahydropyridin-2-yl)-4-fluorophenyl)-2-(difluoromethyl)oxazole-4-carboxamide], on BACE1 [1], the Ki is 62 nM. Besides, the inhibition at 10 µM against BACE1 [2] was 108%. Also, in the data set with P-gp (MDR1), the efflux ratio at 60 min, 0.5 μM stood at 11.7.

`C[C@]1(F)C[C@H](F)[C@@](C)(c2cc(NC(=O)c3ccc(Br)cn3)ccc2F)N=C1N` [Compound 24, N-(3-((2R,3S,5S)-6-amino-3,5-difluoro-2,5-dimethyl-2,3,4,5-tetrahydropyridin-2-yl)-4-fluorophenyl)-5-bromopicolinamide]: on BACE1 [1], the inhibition constant Ki is 4.3 nM. Further, the inhibition at 10 µM at BACE1 [2] is 103%.

Regarding `C[C@@]1(F)C[C@H](F)[C@@](C)(c2cc(NC(=O)c3ccc(C#N)cn3)ccc2F)N=C1N` [Compound 17, N-(3-((2R,3S,5R)-6-amino-3,5-difluoro-2,5-dimethyl-2,3,4,5-tetrahydropyridin-2-yl)-4-fluorophenyl)-5-cyanopicolinamide], on BACE1 [1], the Ki was 39 nM. Also, the efflux ratio at 60 min, 0.5 μM in the data set with P-gp (MDR1) worked out at 0.45.

Turning to `Cc1csc(C(=O)Nc2ccc(F)c([C@@]3(C)N=C(N)[C@](C)(F)C[C@@H]3F)c2)n1` [Compound 12, N-(3-((2R,3S,5R)-6-amino-3,5-difluoro-2,5-dimethyl-2,3,4,5-tetrahydropyridin-2-yl)-4-fluorophenyl)-4-methylthiazole-2-carboxamide], the Ki at BACE1 [1] was 99 nM. On BACE1 [2], the inhibition at 10 µM came out at 118%.

As usually defined, the Ki is the equilibrium dissociation constant of an inhibitor or competing ligand from its target. What is called inhibition is the drop in the measured response relative to a control, in per cent. In general, efflux ratio refers to a quotient of directional permeabilities that is used to spot active efflux.
